# Measurements as given in patent US4824937A, “Synthetic natriuretic peptides” (501 Advanced Peptide Development, Ltd., priority 1986, dated 1989).
# Ends that are not written are not given here.
# Columns and labels:
# [1] = test system: male normotensive Sprague-Dawley rats; assay: Diuretic activity: urine flow after i.v. bolus in anesthetized rats; type: in vivo, rat; conditions: 3.5 mcg/kg i.v. bolus; for URINE FLOW: 8 rats
# Protocol: (§1) The diuretic activities of the synthetic natriuretic peptides (SNP) of this invention and their effects upon electrolyte excretion are determined in male normotensive Sprague-Dawley rats. The animals are anesthetized with sodium pentobarbital (55 mg/kg), the femoral vein is cannulated for injection of the test compound and for infusion of Ringer's solution, the bladder is cannulated for urine collection, and the trachea is cannulated to ensure a clean airway. The animals are infused with Ringer's solution at a rate of 1.2 ml/20 min. for 20 minutes, the infusion rate is then decreased to 1.2 ml/hour for a further 20 minutes, and urine collections are started at the end of that period. Three 10-minute collections are taken as control samples, and at the end of the third 10-minute period the SNP to be tested is injected as a bolus over 30 seconds into the femoral vein. Infusion of Ringer's solution at 1.2 ml/hour is continued for the duration of the experiment, and urine samples are collected every 10 minutes over 4 hours, their respective volumes are determined, and the concentrations of Na^+, Cl^-, and K^+ are measured using a NovaBiomedical electrolyte analyzer. The above determinations are done on samples pooled from all animals in a given experiment, and urine flow is calculated as ml/min./kg body weight while electrolyte concentrations are calculated as mmol/l/gm kidney tissue.
# (§2) Details of the assay method are described above, and it remains only to be stated that 8 male normotensive Sprague-Dawley rats are used in each group. […] Urine flow then decreases sharply and is at control volumes at about 40 minutes where it remains until about 140 minutes.
# [2] = test system: male normotensive Sprague-Dawley rats; assay: Effects upon electrolyte excretion (Na+, K+, Cl- in urine) after i.v. bolus in anesthetized rats; type: in vivo, rat; conditions: 3.5 mcg/kg i.v. bolus; for ELECTROLYTE EXCRETION Cl^- / ELECTROLYTE EXCRETION K^+ / ELECTROLYTE EXCRETION Na^+: pooled urine of 8 rats
# Protocol: as §1, §2
substance,measurement,setting,value
"BG-3009: known ANP composed of 28 amino acid residues, identical with the ANP described by Flynn et al. (SLRRSSCFGGRIDRIGAQSGLGCNSFRY; not fully specified; ends and bridges not checked; UniProt P01161 123-150, looked up)","effect on urine flow, late phase (in words)",[1]; from 150 minutes (BG-3009: after 130 minutes) to the end of the experiment,hardly noticeable and may not be significant
same,"effect on urine flow, early phase (in words)",[1]; from injection up to 130-140 minutes,shows similar effects up to 130 minutes
same,URINE FLOW,[1]; 10 min after injection,333.7 ml./min./kg. body wt × 10^-3
same,URINE FLOW,[1]; 20 min after injection,55.7 ml./min./kg. body wt × 10^-3
same,URINE FLOW,[1]; 30 min after injection,23.3 ml./min./kg. body wt × 10^-3
same,URINE FLOW,[1]; 40 min after injection,16.4 ml./min./kg. body wt × 10^-3
same,URINE FLOW,[1]; 50 min after injection,16.9 ml./min./kg. body wt × 10^-3
same,URINE FLOW,[1]; 60 min after injection,16.7 ml./min./kg. body wt × 10^-3
same,URINE FLOW,[1]; 70 min after injection,16.4 ml./min./kg. body wt × 10^-3
same,URINE FLOW,[1]; 80 min after injection,16.4 ml./min./kg. body wt × 10^-3
same,URINE FLOW,[1]; 90 min after injection,15.2 ml./min./kg. body wt × 10^-3
same,URINE FLOW,[1]; 100 min after injection,16.0 ml./min./kg. body wt × 10^-3
same,URINE FLOW,[1]; 110 min after injection,17.2 ml./min./kg. body wt × 10^-3
same,URINE FLOW,[1]; 120 min after injection,17.6 ml./min./kg. body wt × 10^-3
same,URINE FLOW,[1]; 130 min after injection,23.4 ml./min./kg. body wt × 10^-3
same,URINE FLOW,[1]; 140 min after injection,22.6 ml./min./kg. body wt × 10^-3
same,URINE FLOW,[1]; 150 min after injection,21.4 ml./min./kg. body wt × 10^-3
same,URINE FLOW,[1]; 160 min after injection,19.7 ml./min./kg. body wt × 10^-3
same,URINE FLOW,[1]; 170 min after injection,19.9 ml./min./kg. body wt × 10^-3
same,URINE FLOW,[1]; 180 min after injection,20.5 ml./min./kg. body wt × 10^-3
same,URINE FLOW,[1]; 190 min after injection,22.3 ml./min./kg. body wt × 10^-3
same,URINE FLOW,[1]; 200 min after injection,22.3 ml./min./kg. body wt × 10^-3
same,URINE FLOW,[1]; 210 min after injection,20.7 ml./min./kg. body wt × 10^-3
same,URINE FLOW,[1]; 220 min after injection,22.7 ml./min./kg. body wt × 10^-3
same,URINE FLOW,[1]; 230 min after injection,28.6 ml./min./kg. body wt × 10^-3
same,URINE FLOW,[1]; 240 min after injection,25.9 ml./min./kg. body wt × 10^-3
same,"effect on Na^+ excretion, early phase (in words)",[2],sharp increases in Na^+ excretion for the first 30-40 minutes
same,effect on K^+ and Cl^- excretion (in words),[2]; early phase,short-lasting decreases in K^+ and Cl^- excretion returning to control values after about 60 minutes
same,"effect on Na^+ and Cl^- excretion, late phase (in words)",[2]; from about 140-160 minutes to 240 minutes,slight increase in Na^+ and Cl^- excretion
same,ELECTROLYTE EXCRETION Cl^-,[2]; 10 min after injection,10.1 mmol/l./gm. kidney tissue
same,ELECTROLYTE EXCRETION K^+,[2]; 10 min after injection,1.5 mmol/l./gm. kidney tissue
same,ELECTROLYTE EXCRETION Na^+,[2]; 10 min after injection,10.0 mmol/l./gm. kidney tissue
same,ELECTROLYTE EXCRETION Cl^-,[2]; 20 min after injection,12.8 mmol/l./gm. kidney tissue
same,ELECTROLYTE EXCRETION K^+,[2]; 20 min after injection,2.4 mmol/l./gm. kidney tissue
same,ELECTROLYTE EXCRETION Na^+,[2]; 20 min after injection,13.2 mmol/l./gm. kidney tissue
same,ELECTROLYTE EXCRETION Cl^-,[2]; 30 min after injection,12.7 mmol/l./gm. kidney tissue
same,ELECTROLYTE EXCRETION K^+,[2]; 30 min after injection,4.9 mmol/l./gm. kidney tissue
same,ELECTROLYTE EXCRETION Na^+,[2]; 30 min after injection,12.4 mmol/l./gm. kidney tissue
same,ELECTROLYTE EXCRETION Cl^-,[2]; 40 min after injection,13.0 mmol/l./gm. kidney tissue
same,ELECTROLYTE EXCRETION K^+,[2]; 40 min after injection,5.6 mmol/l./gm. kidney tissue
same,ELECTROLYTE EXCRETION Na^+,[2]; 40 min after injection,11.1 mmol/l./gm. kidney tissue
same,ELECTROLYTE EXCRETION Cl^-,[2]; 50 min after injection,14.0 mmol/l./gm. kidney tissue
same,ELECTROLYTE EXCRETION K^+,[2]; 50 min after injection,6.6 mmol/l./gm. kidney tissue
same,ELECTROLYTE EXCRETION Na^+,[2]; 50 min after injection,8.8 mmol/l./gm. kidney tissue
same,ELECTROLYTE EXCRETION Cl^-,[2]; 60 min after injection,13.5 mmol/l./gm. kidney tissue
same,ELECTROLYTE EXCRETION K^+,[2]; 60 min after injection,7.4 mmol/l./gm. kidney tissue
same,ELECTROLYTE EXCRETION Na^+,[2]; 60 min after injection,7.8 mmol/l./gm. kidney tissue
same,ELECTROLYTE EXCRETION Cl^-,[2]; 70 min after injection,13.7 mmol/l./gm. kidney tissue
same,ELECTROLYTE EXCRETION K^+,[2]; 70 min after injection,7.7 mmol/l./gm. kidney tissue
same,ELECTROLYTE EXCRETION Na^+,[2]; 70 min after injection,7.1 mmol/l./gm. kidney tissue
